Measurements reported in patent publication US6376495B1, “Antidiabetic piperazine derivatives, processes for their preparation and compositions containing them” (Merck Patent Gesellschaft, priority 1998, dated 2002).

How the values were obtained:
[1] = test system: experimental model of non-insulin-dependent diabetes induced in the rat by streptozotocin; experiment: Study of the hypolipidaemic activity in the rat (total cholesterol, total triglycerides); assay type: in vivo; conditions: oral route for 7 days, sample 18 h after final administration, diabetic rats 6 months old
Procedure: The hypolipidaemic activity of the compounds of formula I by the oral route was determined on an experimental model of non-insulin-dependent diabetes induced in the rat by streptozotocin.
The model of non-insulin-dependent diabetes is obtained in the rats by a neonatal injection (5 days after birth) of streptozotocin.
The diabetic rats used are 6 months old. The animals are kept, from the day of their birth to the day of the experiment, in an animal house at a regulated temperature of 21 to 22° C. and are subjected to a fixed cycle of light (from 7 h to 19 h) and of darkness (from 19 h to 7 h).
Their diet consisted of a maintenance diet; water and food were provided “ab [sic] libitum”, with the exception of the 18 hours of fasting preceding the withdrawals of the blood samples on which the lipid balances will be carried out.
The rats are treated by the oral route with the compound of Example 1 for 7 days. A 300-μl sample is withdrawn 18 h after the final administration of this compound.
The total cholesterol was quantitatively determined by the CHOE/CHOD/POD Trinder method as an end point (Instrumentation Laboratory reagent [lacuna] on a Monarch plus analyser (Instrumentation Laboratory).
The total triglycerides were quantitatively determined by the GPO/Trinder method as an end point (Sigma Diagnostic reagent) on a Monarch analyser (Instrumentation Laboratory).

[2] = test system: experimental model of non-insulin-dependent diabetes induced in the rat by streptozotocin; experiment: Study of the antidiabetic activity in the rat (glycaemia, oral route); assay type: in vivo; conditions: diabetic rats 8 weeks old; for % of glycaemia at D1 (percentage of change in the glycaemia with respect to D0): after treatment for 1 day; for % of glycaemia at D4 (percentage of change in the glycaemia with respect to D0): after treatment for 4 days
Procedure: The antidiabetic activity of the compounds of formula I by the oral route was determined on an experimental model of non-insulin-dependent diabetes induced in the rat by streptozotocin.
The model of non-insulin-dependent diabetes is obtained in the rat by a neonatal injection (on the day of birth) of streptozotocin.
The diabetic rats used are 8 weeks old. The animals are kept, from the day of their birth to the day of the experiment, in an animal house at a regulated temperature of 21 to 22° C. and are subjected to a fixed cycle of light (from 7 h to 19 h) and of darkness (from 19 h to 7 h). Their diet consisted of a maintenance diet; water and food were provided “ad libitum”, with the exception of the 2 hours of fasting preceding the tests, where food is withdrawn (post-absorptive state).
The rats are treated by the oral route, during the day, with the test product. Two hours after the final administration of the product and 30 minutes after anaesthetizing the animals with sodium pentobarbital (Nembutal®), a 300-μl blood sample is withdrawn at the end of the tail in order to determine the glycaemia.
at D1 (after treatment for 1 day) with respect to D0 (before treatment); and
at D4 (after treatment for 4 days) with respect to D0 (before treatment) for 2 different administration doses (20 mg/kg/day and 200 mg/kg/day) of active principle.

Question: For `COc1cccc(N2CCN(CCOc3ccc(CC(=O)O)cc3)CC2)c1` [Example 1, (4-{2-[4-(3-methoxyphenyl)-piperazin-1-yl]ethoxy}phenyl) acetic acid], which “TOTAL CHOLESTEROL” value ([1]; in the absence of treatment 90) is on record?
Answer: 79 mg/dL

Question: What about the “TOTAL TRIGLYCERIDES” value ([1]; in the absence of treatment 167) of the same compound?
Answer: 102 mg/dL

Question: And the “% of glycaemia at D1 (percentage of change in the glycaemia with respect to D0)” value ([2]; 20 mg/kg/day)?
Answer: −8%

Question: And the “% of glycaemia at D4 (percentage of change in the glycaemia with respect to D0)” value ([2]; 20 mg/kg/day)?
Answer: −10%

Question: And the “% of glycaemia at D1 (percentage of change in the glycaemia with respect to D0)” value ([2]; 200 mg/kg/day)?
Answer: −24%

Question: What about the “% of glycaemia at D4 (percentage of change in the glycaemia with respect to D0)” value ([2]; 200 mg/kg/day) of the same compound?
Answer: −34%

Question: And the melting point?
Answer: 158 to 160 °C
